In EP2799881A1, “Method for the determination of the presence of an antibiotic in a fluid” (DSM IP Assets B.V., priority 2013, dated 2014):

Tested on: test organism
Assay: Microbial growth inhibition test (DSM Delvotest® SP-NT), detection limit of antibiotics in spiked milk, with tomatidine added to the test medium
Assay type: cell-based
Conditions: 64 °C
Description: As a reference, a commercially available test system without any added steroidal glycoalkaloid aglycone (DSM Delvotest® SP-NT, plates containing 8 x 12 test wells) was used. In addition, four different test systems were prepared by modifying the reference test by adding the steroidal glycoalkaloid aglycone tomatidine to the test medium in a final concentration of 50 ppb, 100 ppb, 500 ppb or 2000 ppb. The detection limits of two different antibiotics were measured in the reference test and in the tests with modified medium containing different concentrations of tomatidine. The antibiotics that were measured were streptomycin and dihydrostreptomycin (DH-streptomycin) (both belonging to the aminoglycoside antibiotic family). Five different concentrations of each antibiotic (see Table 1) were measured. Hundred microliter antibiotic-free milk or hundred microliter milk spiked with the respective concentrations of antibiotic was added to the test medium (170 µl) and incubated at 64 °C in a water bath. The tests were visually determined at the point in time where a sample without antibiotic had changed colour from purple to yellow. At this point, the plates were cooled in an ice bath for 5 minutes. The cooled plates were scanned on a Delvo® scanner. The colour of each well was expressed as a Z-value; a purple colour gives rise to a positive Z-value, while a yellow colour has a negative Z-value. The Z-value of test results with samples without antibiotic is typically -5 < Z < -10. Detailed description of the scanning technology and the expression of the colour in Z-values are described in WO 03/033728. For the determination of the detection limit for each antibiotic, a dose-response function (Z-value versus concentration of antibiotic) was constructed. The detection limit is defined as the antibiotic concentration where the S-shaped dose-response function has a Z-value equal to the cut-off value.

[1] = Tomatidine concentration in test 0 ppb (reference Delvotest® SP-NT), cut-off Z-value 0
[2] = Tomatidine concentration in test 50 ppb, cut-off Z-value 0, tomatidine 50 ppb in test
[3] = Tomatidine concentration in test 100 ppb, cut-off Z-value 0, tomatidine 100 ppb in test
[4] = Tomatidine concentration in test 500 ppb, cut-off Z-value 0, tomatidine 500 ppb in test
[5] = Tomatidine concentration in test 2000 ppb, cut-off Z-value 0, tomatidine 2000 ppb in test

Row | Compound | Detection limit [1] [ppb] | Detection limit [2] [ppb] | Detection limit [3] [ppb] | Detection limit [4] [ppb] | Detection limit [5] [ppb]
1 | [H]/N=C(/N)N[C@H]1[C@H](O)[C@@H](O)[C@H](O[C@@H]2O[C@@H](C)[C@](O)(C=O)[C@H]2O[C@@H]2O[C@@H](CO)[C@H](O)[C@@H](O)[C@@H]2NC)[C@@H](N/C(N)=N\[H])[C@@H]1O [Streptomycin, streptomycin] | 2005 | 1523 | 398 | 295 | 79
2 | CN[C@@H]1[C@H](O[C@H]2[C@H](O[C@H]3[C@H](O)[C@@H](O)[C@H](NC(=N)N)[C@@H](O)[C@@H]3NC(=N)N)O[C@@H](C)[C@]2(O)CO)O[C@@H](CO)[C@H](O)[C@H]1O [DH-streptomycin, dihydrostreptomycin] | 1471 | 1075 | 365 | 150 | 115
